Test results taken from patent US20180064739A1, “NUTRITIONAL COMPOSITION WITH HUMAN MILK OLIGOSACCHARIDES AND USES THEREOF” (Mead Johnson Nutrition Company, priority 2016, published 2018).

Experiments:
[1] = tested on: ganglioside-bound sialic acid in corpus callosum and cerebellum; assay: Ganglioside-bound sialic acid in brain regions of suckling pigs fed sialyllactose diets (periodic acid-resorcinol reaction); type: in vivo; details: diet supplemented with 4 g/L, fed 21 days
Description: This study sought to determine whether administration of certain isomers of sialyllactose could increase or enrich sialic acid in the brain tissues of neonatal pigs. Indeed, accumulation of sialic acid in the brain during neonatal development is associated with increased cognitive functioning. Further, sialic acid (SA) is a key component of human milk oligosaccharides and neural tissues. SA accumulates in the brain rapidly during neonatal development and is thought to play an important role in brain development. […] Piglets readily consumed the formula, grew at normal rates and remained clinically healthy throughout the experiment.
After 21 days, the pigs were euthanized and the left hemisphere of the brain was dissected into cerebrum, cerebellum, corpus callosum, and hippocampus regions. […] The lipid- and protein-bound sialic acid contents from each sample were determined using a modified periodic acid-resorcinol reaction. Free sialic acid was calculated by difference. Briefly, the sialic from the protein and ganglioside fractions was first oxidized using the periodic acid reagent, which released the oxidized sialic-aldehyde derivative quantitatively. The released sialic derivative was measured colorimetrically using the resorcinol-HCl reagent.

[2] = tested on: microbial taxa of the proximal and distal colon; assay: Gut microbiome of suckling pigs, 16S rDNA Illumina sequencing of colon digesta; type: in vivo; details: 21 days
Description: This study sought to determine whether administration of certain isomers of sialyllactose could modulate the microbiome of developing neonatal pigs, i.e. suckling pigs. Indeed, selectively promoting beneficial gut microbiota in preterm and term infants, toddlers, and children may provide long-term health benefits, including neuronal benefits. Briefly, day-old pigs were randomized among 6 diets; (1) control diet, (2) diet supplemented with 2 g/L of 3′-sialyllactose, (3) diet supplemented with 4 g/L of 3′-sialyllactose, (4) diet supplemented with 2 g/L of 6′-sialyllactose, (5) diet supplement with 4 g/L of 6′-sialyllactose, and (6) 2 g/L PDX and 2 g/L GOS. The pigs were fed three times per day for 21 days.
Pigs were euthanized and intestinal digesta were analyzed from the proximal and distal colon. The microbiome analysis was performed via 16S rDNA Illumina sequencing. Briefly, DNA was extracted from digesta using the UltraClean Tissue and Cells DNA Isolation Kit (MoBio). The DNA was then cleaned using PowerClean DNA Clean-Up Kit (ThermoFisher Scientific, Waltham, Mass.) and quantified with the Qubit Quant-iT dsDNA Broad- Range Kit (MoBio Laboratories, Carlsbad, Calif.). The V4 region of 16S ribosomal RNA was amplified using primers 515F (5#-GTGCCAGCMGCCGCGGTAA-3#) and 806R (5#-[…]-3#). Resulting PCR products were sequenced using Illumina MiSeq paired-end technology. High-quality sequences were searched against Greengenes database and then clustered at 97% sequence identity to form operational taxonomic units (OTUs) and assigned taxonomic classification. Similarity between microbial communities was assessed using the Bray-Curtis distance metric and then visualized using principal coordinates analysis. To test the community differences between microbiota between all groups of samples, we used the Adonis function. Because all genera were considered in the test, the Bonferroni multiple comparison correction was applied.

[3] = tested on: heat shock protein 72 (Hsp72); assay: Liver Hsp72 after inescapable tail shock stress in diet-fed rats; type: in vivo, male F344 rats; details: diet for 4 weeks, after stressor exposure
Description: This study sought to determine whether the administration of PDX, GOS, and lactoferrin could modulate stress-evoked responses and the concentration of inflammatory cytokines and chemokines in blood or tissue. Briefly, male F344 rats were pair-housed in a barrier facility and fed experimental or control diet for 4 weeks. The diet formulations were as follows: (1) control, (2) diet supplemented with lactoferrin (LAC), (3) diet supplemented with GOS and PDX, and (4) diet supplemented with GOS, PDX, and Lactoferrin.
The rats were pair housed in standard Nalgene Plexiglas cages (45 cm×25.2 cm×14.7 cm) and had ad libitum access to food and water for the duration of the experimental procedures. Food consumption was monitored three times per week by weighing the chow pellets within each food hopper. Following 4 weeks on the diets, rats were exposed to inescapable (IS) or remained within their home cage undisturbed (home cage controls; HCC). IS consisted of 100, 1.5 mA inescapable tail shocks administered at variable intervals over a period of approximately 2 hours. Rats exposed to IS were restrained in Broome-style Plexiglas tubes (23.4 cm in length and 7.0 cm in diameter) with their tails exposed for electrode attachment.
Furthermore, in the same study heat shock protein 72 (Hsp72) was measured in the liver. […]

[4] = supplemented diet, colon digesta

Molecule: CC(=O)N[C@H]1[C@H]([C@H](O)[C@H](O)CO)O[C@@](O[C@H]2[C@@H](O)[C@@H](CO)O[C@@H](O[C@H]3[C@H](O)[C@@H](O)C(O)O[C@@H]3CO)[C@@H]2O)(C(=O)O)C[C@@H]1O (stereo partly shown) [3′-sialyllactose]
- increase of ganglioside-bound sialic acid in the cerebellum compared to control pigs [1]: over 10%

Molecule: CC(=O)N[C@H]1[C@H]([C@H](O)[C@H](O)CO)O[C@@](OC[C@H]2O[C@@H](O[C@H]3[C@H](O)[C@@H](O)[C@H](O)O[C@@H]3CO)[C@H](O)[C@@H](O)[C@H]2O)(C(=O)O)C[C@@H]1O [6′-sialyllactose]
- bacterial taxa of Collinsella aerofaciens, Ruminococcus, Faecalibacterium and Prevotella ([2]; diet supplemented with 4 g/L, compared to the control diet): increase
- microbiome difference versus control diet ([2]; diet supplemented with 4 g/L, proximal and distal colon): statistically significant microbiome difference
- bacterial taxa belonging to the phyla Actinobacteria and Bacteroidetes ([2]; diet supplemented with 4 g/L, versus control diet): statistically significant increase
- taxa of the family Enterobacteriaceae and Enterococaceae, fold lower than in the control diet [2, 4]: 2.3 fold
- taxa of the family Lachnospiraceael and order Lactobacillales, fold lower than in the control diet [2, 4]: 4 fold

Molecule: lactoferrin
- effect of stress on liver Hsp72 expression [3]: reduction in the effect of stress
